# According to patent publication US20150018268A1, “MULTIVALENT SYNTHETIC COMPOUNDS AS ANTIBIOTIC TREATMENT” (CENTRE NATIONAL DE LA RECHERCHE SCIENTIFIQUE (CNRS), priority 2010, published 2015):
# Square brackets hold non-standard residues; d marks the D form. Side chains are listed from the residue outwards. Peptide text beside a SMILES is read from it. * marks the point of attachment. X1 = NCCCCC(N)CN1CCC[C@H]1C(=O)*; Ahx = NCCCCCC(=O)O
# How the values were obtained:
# [1] = Half-life in human serum; format: in vitro ADME; details: human serum at 37° C.
# Text: (§1) The term “standard peptide bond” means an amide bond of formula (—CONH—) which is normally present between 2 amino acids in a natural protein. Such a bond is sensitive to the action of proteases. The term “modified peptide bonds ψ” means a chemical bond between 2 amino acids of chemical formula distinct from the standard peptide bond of formula (—CONH—). […] The term “protease”, also known as “peptidase” or “proteolytic enzyme”, means any enzyme which cleaves the standard peptide bonds in proteins. This process is known as proteolytic cleavage. This involves the use of a water molecule which is what leads to proteases being classified as hydrolases. The proteases namely include proteases known as N-peptidases which carry out the cleavage of the N-terminal end of proteins. These proteases are particularly inconvenient in terms of the in vivo stability of peptides without modified peptide bonds.
# [2] = Half-life in foetal calf serum; format: in vitro ADME; details: bovine; foetal calf serum at 37° C.
# Text: as §1
smiles,measurement,setting,value
"N=C(N)NCCC[C@H](NC(=O)[C@@H]1CCCN1CC(N)CCCCN)C(=O)NCCCC[C@H](NC(=O)[C@H](CCCCN)NC(=O)[C@H](CCCCNC(=O)[C@H](CCCNC(=N)N)NC(=O)[C@@H]1CCCN1CC(N)CCCCN)NC(=O)[C@H](CCCNC(=N)N)NC(=O)[C@@H]1CCCN1CC(N)CCCCN)C(=O)NCC(=O)N1CCC[C@H]1C(=O)N[C@@H](CCCCNC(=O)[C@H](CCCNC(=N)N)NC(=O)[C@@H]1CCCN1CC(N)CCCCN)C(=O)N[C@@H](CCC(=O)O)C(=O)N[C@@H](CCCCNC(=O)[C@H](CCCNC(=N)N)NC(=O)[C@@H]1CCCN1CC(N)CCCCN)C(=O)NCCCCCC(N)=O (some centres unmarked) [HB19, 5[Kψ(CH2N)PR]-TASP] (X1-RK([Arg-X1])KK([Arg-X1])GPK([Arg-X1])EK([Arg-X1])[Ahx]-NH2)",half-life,[1],> 24 h
same,half-life,[2],> 24 h
